PubChem BioAssay (NCI)
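Values below derive from 48-hour exposures of cells grown in 96-well plates, with endpoints linearly interpolated between the two concentrations bracketing the appropriate inhibition level. TGI: concentration producing complete growth inhibition.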

How the values were obtained:
Assay in all cases: NCI anticancer screen, dose series, 48 h
COLO 205 colon = test system: COLO 205 colon
SNB-75 CNS = test system: SNB-75 CNS
RPMI-8226 leukemia = test system: RPMI-8226 leukemia
NCI-H460 lung = test system: NCI-H460 lung
EKVX NSCLC = test system: EKVX NSCLC
CAKI-1 renal = test system: CAKI-1 renal
SF-539 CNS = test system: SF-539 CNS
SK-MEL-28 melanoma = test system: SK-MEL-28 melanoma
U251 CNS = test system: U251 CNS
UACC-257 melanoma = test system: UACC-257 melanoma
OVCAR-4 ovarian = test system: OVCAR-4 ovarian
MALME-3M melanoma = test system: MALME-3M melanoma
A549 NSCLC = test system: A549 NSCLC
NCI-H522 lung = test system: NCI-H522 lung
OVCAR-8 ovarian = test system: OVCAR-8 ovarian
HL-60(TB) leukemia = test system: HL-60(TB) leukemia
M14 melanoma = test system: M14 melanoma
ACHN renal = test system: ACHN renal
786-0 renal = test system: 786-0 renal
KM12 colon = test system: KM12 colon
A498 renal = test system: A498 renal
LOX IMVI melanoma = test system: LOX IMVI melanoma
MDA-MB-231 breast = test system: MDA-MB-231 breast
HCT-15 colon = test system: HCT-15 colon
SW-620 colon = test system: SW-620 colon
UO-31 renal = test system: UO-31 renal
UACC-62 melanoma = test system: UACC-62 melanoma
MCF7 breast = test system: MCF7 breast
HOP-92 NSCLC = test system: HOP-92 NSCLC
OVCAR-3 ovarian = test system: OVCAR-3 ovarian
CCRF-CEM leukemia = test system: CCRF-CEM leukemia
MDA-MB-435 = test system: MDA-MB-435
SK-MEL-2 melanoma = test system: SK-MEL-2 melanoma
SK-MEL-5 melanoma = test system: SK-MEL-5 melanoma
PC-3 prostate = test system: PC-3 prostate
HCC-2998 colon = test system: HCC-2998 colon
HS 578T breast = test system: HS 578T breast
MOLT-4 leukemia = test system: MOLT-4 leukemia
HOP-62 NSCLC = test system: HOP-62 NSCLC
HCT-116 colon = test system: HCT-116 colon
T-47D breast = test system: T-47D breast
SNB-19 CNS = test system: SNB-19 CNS
OVCAR-5 ovarian = test system: OVCAR-5 ovarian
IGROV1 ovarian = test system: IGROV1 ovarian
SN12C renal = test system: SN12C renal
DU-145 prostate = test system: DU-145 prostate
TK-10 renal = test system: TK-10 renal
NCI-H23 lung = test system: NCI-H23 lung
HT29 colon = test system: HT29 colon
SF-295 CNS = test system: SF-295 CNS
SF-268 CNS = test system: SF-268 CNS
MDA-N = test system: MDA-N

Q: Which results are given for O=C(/C=C\c1ccccc1)Oc1ccc(/C=C2\CCCCC2=O)cc1?
A: TGI (COLO 205 colon): 62.9 µM; TGI (SNB-75 CNS): > 100 µM; TGI (RPMI-8226 leukemia): 50.6 µM; TGI (NCI-H460 lung): > 100 µM; TGI (EKVX NSCLC): > 100 µM; TGI (CAKI-1 renal): 97.9 µM; TGI (SF-539 CNS): > 100 µM; TGI (SK-MEL-28 melanoma): > 100 µM; TGI (U251 CNS): > 100 µM; TGI (UACC-257 melanoma): 87.3 µM; TGI (OVCAR-4 ovarian): > 100 µM; TGI (MALME-3M melanoma): > 100 µM; TGI (A549 NSCLC): > 100 µM; TGI (NCI-H522 lung): > 100 µM; TGI (OVCAR-8 ovarian): > 100 µM; TGI (HL-60(TB) leukemia): 35.2 µM; TGI (M14 melanoma): > 100 µM; TGI (ACHN renal): > 100 µM; TGI (786-0 renal): > 100 µM; TGI (KM12 colon): > 100 µM; TGI (A498 renal): > 100 µM; TGI (LOX IMVI melanoma): > 100 µM; TGI (MDA-MB-231 breast): > 100 µM; TGI (HCT-15 colon): 79.7 µM; TGI (SW-620 colon): > 100 µM; TGI (UO-31 renal): > 100 µM; TGI (UACC-62 melanoma): 0.136 µM; TGI (MCF7 breast): > 100 µM; TGI (HOP-92 NSCLC): > 100 µM; TGI (OVCAR-3 ovarian): > 100 µM; TGI (CCRF-CEM leukemia): 27.2 µM; TGI (MDA-MB-435): 84.6 µM; TGI (SK-MEL-2 melanoma): > 100 µM; TGI (SK-MEL-5 melanoma): > 100 µM; TGI (PC-3 prostate): > 100 µM; TGI (HCC-2998 colon): > 100 µM; TGI (HS 578T breast): > 100 µM; TGI (MOLT-4 leukemia): 16.5 µM; TGI (HOP-62 NSCLC): > 100 µM; TGI (HCT-116 colon): > 100 µM; TGI (T-47D breast): > 100 µM; TGI (SNB-19 CNS): > 100 µM; TGI (OVCAR-5 ovarian): > 100 µM; TGI (IGROV1 ovarian): > 100 µM; TGI (SN12C renal): > 100 µM; TGI (DU-145 prostate): > 100 µM; TGI (TK-10 renal): 43.2 µM; TGI (NCI-H23 lung): > 100 µM; TGI (HT29 colon): 31.7 µM; TGI (SF-295 CNS): > 100 µM; TGI (SF-268 CNS): > 100 µM; TGI (MDA-N): > 100 µM
